Here are results for 4 substances from patent US6667293B1, “Use of cyclodextrins to modulate gene expression with reduced immunostimulatory response” (priority 1995, dated 2003).

One data set concerns spleen of CD1 mice. Kind of data set: Spleen size (spleen weight) after intraperitoneal injection. It counts as in vivo, mouse. The procedure:
(§1) Male CD1 mice (4-5 weeks, 20-22 g, Charles river, Wilmington, Mass.) were used in this study. The animals were fed with commercial diet and water ad libidum and were kept at the animal facility of the University of Massachusetts Medical Center (Worcester, Mass.). For in vivo studies, phosphorothioate oligonucleotides (final concentration 4 mg/ml) were mixed with 5% of the cyclodextrin HPCD or HECD in sterile PBS, sonicated at 4° C. for 1 hour, followed by incubation at 4° C. overnight. The phosphorothioate oligonucleotide, either in plain PBS or mixed with cyclodextrin, was injected into mice intraperitoneally, in a volume of 0.25 ml (1 mg/mouse). After 24 hr (in the case of the phosphorothioate oligonucleotide of SEQ ID NO:4) and 48 hr (in the case of the phosphorothioate oligonucleotide of SEQ ID NO:2), mice were sacrificed and spleens were collected and prepared for further studies. Two or three mice were studied for each condition and analyzed individually.

In data set [1] the test system is immunostimulatory response. The conditions noted are these: known from the literature; cited from earlier work.
In another data set the test system is mouse splenocytes. Kind of data set: Splenic cell proliferation assay, [3H]-thymidine incorporation. As to conditions: for cell proliferation ([3H]-thymidine incorporation): oligonucleotide alone, FIG. 1 / FIG. 3 (SEQ ID NO:4 at 1 or 10 μg/ml). It counts as cell-based. How it is done:
Mouse spleen was taken from male CD1 mouse (4-5 weeks, Charles River, Wilmington, Mass.). Single cell suspensions were prepared by gently mincing with frosted ends of glass slides, washed twice, and then resuspended in RPMI complete medium [RPMI 1640 medium supplemented with 10%-heat inactivated (56° C. for 30 minutes) fetal bovine serum, 2 mM glutamine, 100 μg/ml streptomycin, 100 U/ml penicillin, and 50 μM 2-mercaptoethanol]. The cells were then plated in 96-well dishes at a density of 10^6 cells/ml, in a final volume of 100 μl. Oligonucleotides were added to the cell culture in 10 μl of TE buffer (10 mM Tris-HCL pH 7.5, 1 mM EDTA). Cyclodextrin analogs: 2-hydroxypropyl-βcyclodextrin (HPCD, degree of substitution 5-8), hydroxyethyl-β cyclodextrin (HECD, degree of substitution 15), and Encapsin (which is a mixture of hydroxypropyl β-cyclodextrin but has a different degree of substitution, 17.8), were purchased pyrogen free (Amaizo, Hammond, Ind.) and were added to the cells at concentration of 0.5% in RPMI medium except where indicated. Cells were then set to culture in a 37° C., 5% CO2-[…], humidified air incubator for further studies. The experiments were done in triplicate.
After 44 hours, cells were pulsed-labeled with 1 μCi [^3H]-thymidine/well (in 20 μl of RPMI medium) for 4 hours. Cells were then harvested by an automatic cell harvester (Skatron, Sterling, Va.) and the filters were counted using a scintillation counter. […] All the three cyclodextrin analogs reduced cell proliferation to similar levels.

For data set [2], the system named is murine splenic lymphocytes. Kind of data set: Cell cycle analysis, in vitro (propidium iodide flow cytometry). As to conditions: 48 hours, oligonucleotide 10 μg/ml, cyclodextrin 0.5%. It is filed as cell-based, mouse.
For the next data set, the system named is spleen cells of CD1 mice. In words: Cell cycle analysis of spleen cells from in vivo treated mice. Also on record: species or system mouse. How it is done:
as §1, with “The phosphorothioate oligonucleotide, either in plain PBS or mixed with cyclodextrin, was injected into mice intraperitoneally, in a volume of 0.25 ml (1 mg/mouse).” left out
Spleens from in vivo treated mice were harvested and single cell suspensions were set in culture in RPMI complete medium (10^6 cells/tube in 1 ml RPMI). After 4 hours of culture, cells were washed with FACS buffer and fixed for cell cycle analysis as described above. The experiments were done in duplicate.

Data set [3] has as its system spleen lymphocytes of CD1 mice. Kind of data set: Immunoglobulin synthesis (IgG/IgM ELISA) by spleen cells of in vivo treated mice. Also on record: species or system mouse. How it is done: as §1
Spleens from in vivo treated mice were harvested and single cell suspensions were set in culture at a density of 10^6 cells/ml, in 1 ml RPMI complete medium. […] The optical density (405 nm) was measured using an automatic ELISA plate reader (Bio-Tek Instruments, Inc). IgG and IgM levels were calculated based on the standard curve. […]

Another data set deals with HIV-1. As to conditions: background statement; cited from earlier work.
The next data set has as its system CD1 mice. Kind of data set: Toxicity observation after intraperitoneal injection. It is filed as in vivo, mouse. As to conditions: i.p. 50 mg/Kg. The procedure: as §1
Similar experiments were performed with the phosphorothioate oligonucleotide of SEQ ID NO:4. […] In order to reduce the toxicity, 25 mg/Kg of the phosphorothioate oligonucleotide of SEQ ID NO:4 was injected into the animals.

Setting [4] is: i.p. 1 mg/mouse (50 mg/Kg), 48 hr.

For the substance 2-hydroxypropyl-β-cyclodextrin [HPCD], the “spleen weight compared to PBS-treated mice” value in the data set with spleen of CD1 mice (5% HPCD alone) was “no effect on spleen weight”.
On to “SEQ ID NO:3: phosphorothioate oligonucleotide that binds to the human p53 oncogene (CCCTGCTCCCCCCTGGCTCC; all phosphorothioate, sugars by position and methylation of C not given here)”, for which, in data set [1], the immunostimulatory effect result was “does not induce an immunostimulatory effect”.
With “SEQ ID NO:2: phosphorothioate oligodeoxynucleotide complementary to the rev region of HIV-1; induces an immunostimulatory response (TCGTCGCTGTCTCCGCTTCTTCTTGCC; DNA, all phosphorothioate, methylation of C not given here)”, in the data set on mouse splenocytes (0.1 μg/ml oligonucleotide, FIG. 1), the “change in [3H] thymidine incorporation” value is “no significant change”. For the same substance, the “cell proliferation ([3H]-thymidine incorporation)” value in the data set on mouse splenocytes was “increases cell proliferation in a concentration-dependent manner”. In addition, in data set [2], the “% cells in G0/G1” value was 77.7 ± 1.0%, the “% cells in G2/S” value was determined as 22.3 ± 1.0% and the “Increase (cells in S/G2 phases compared with medium alone)” value is 44.8%. Besides, in the data set with spleen cells of CD1 mice (setting [4]), the “% cells in G0/G1” value was found to be 82.0 ± 1.2% and the “% cells in G2/S” value is given as 18.0 ± 1.2%. Also, in the data set on spleen of CD1 mice (i.p. 1 mg/mouse, 48 hr, FIG. 4), the “spleen weight relative to PBS-treated mice” value is “about 1.5 times”. The “production of IgG and IgM” value in data set [3] (SEQ ID NO:2, 48 hours after injection, FIG. 5) is on record as “highly significant increase”. The HIV-1 replication entry with HIV-1 is “inhibit HIV-1 replication”.
With “SEQ ID NO:4: phosphorothioate oligonucleotide, 20-mer that contains multiple 5′-CG-3′ motifs (GAGAACGCTCGACCTTCGAT; all phosphorothioate, sugars by position and methylation of C not given here)”, the “cell proliferation ([3H]-thymidine incorporation)” value in the data set with mouse splenocytes is “dramatic increase in cell proliferation”. In the data set with spleen cells of CD1 mice (i.p. 25 mg/Kg, 24 hr), the “% cells in G0/G1” value is 68.5 ± 0.5%, the “% cells in G2/S” value is reported as 22.7 ± 0.5%, the “Increase (cells in G2/S compared with PBS)” value came to 41% and the “stimulation of cell proliferation (cell cycle analysis)” value is listed as “stimulated cell proliferation”. For the same substance, the “splenomegaly / spleen weight” value with spleen of CD1 mice (SEQ ID NO:4 i.p., 24 hr, FIG. 6) is listed as “induced splenomegaly”. For the same substance, in data set [3] (SEQ ID NO:4, FIG. 7), the “increase in production of IgG and IgM antibodies” value is listed as “approximately 10 fold”. In addition, the toxicity observation entry with CD1 mice is “noticeable bloody exudate and congestion in abdominal cavities”. In addition, the immunostimulatory effect entry in data set [1] was “induce an immunostimulatory response both in vitro and in vivo”.
